From patent US20260226086A1, “COMPOUNDS AND COMPOSITIONS AS STAT3 DEGRADERS AND USES THEREOF” (REGENTS OF THE UNIVERSITY OF MICHIGAN, priority 2023, published 2026) come the findings set out here.

Common to all, as to assay type: cell-based
In experiment [1] the test system is SUP-M2 cells. The experiment in a line: CellTiter-Glo 2.0 cell viability assay, SUP-M2. Particulars: SUP-M2, 96 h, 4 days. The method in brief: (§1)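 1000 cells per well exposed to serially diluted compounds for 4 days at 37 °C, 5% CO2. Viability measured by CellTiter-Glo 2.0 luminescence versus untreated cells; IC50 from four-parameter nonlinear fit of triplicate means.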
In general terms: ATP-based viability assays read luminescence as a measure of living cells.

Experiment [2] deals with T1, STAT3 (Homo sapiens, UniProt P40763).
T1 construct: This cell line is a clone created by using CRISPR-Cas9 to fuse HiBiT to the 3′ end of STAT3 in HeLa cells; host or cells: STAT3-HiBiT KI HeLa cell line (CRISPR-Cas9 knock-in clone)
The experiment is described as follows: HiBiT assay, STAT3 degradation in STAT3-HiBiT KI HeLa cells. The following applies: 24 h; for DC50: read-out: STAT3 Degradation (HeLa 24 h HiBit) DC50. An outline of the steps: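 HeLa cells with CRISPR knock-in of HiBiT at the STAT3 C-terminus, 20000 cells/well, treated with serial compound dilutions for 24 h at 37 °C, 5% CO2. Remaining STAT3 read by Nano-Glo HiBiT lytic luminescence versus untreated cells; IC50 from four-parameter nonlinear fit of triplicate means.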
Background: HiBiT is a short tag that completes a luciferase, so light tracks the accessible tagged protein.

The subject of experiment [3] is SU-DHL-1 cells. The experiment is described as follows: CellTiter-Glo 2.0 cell viability assay, SU-DHL-1. Particulars: Homo sapiens, 96 h, 4 days. An outline of the steps: as §1

T1 sequence (P40763 whole entry): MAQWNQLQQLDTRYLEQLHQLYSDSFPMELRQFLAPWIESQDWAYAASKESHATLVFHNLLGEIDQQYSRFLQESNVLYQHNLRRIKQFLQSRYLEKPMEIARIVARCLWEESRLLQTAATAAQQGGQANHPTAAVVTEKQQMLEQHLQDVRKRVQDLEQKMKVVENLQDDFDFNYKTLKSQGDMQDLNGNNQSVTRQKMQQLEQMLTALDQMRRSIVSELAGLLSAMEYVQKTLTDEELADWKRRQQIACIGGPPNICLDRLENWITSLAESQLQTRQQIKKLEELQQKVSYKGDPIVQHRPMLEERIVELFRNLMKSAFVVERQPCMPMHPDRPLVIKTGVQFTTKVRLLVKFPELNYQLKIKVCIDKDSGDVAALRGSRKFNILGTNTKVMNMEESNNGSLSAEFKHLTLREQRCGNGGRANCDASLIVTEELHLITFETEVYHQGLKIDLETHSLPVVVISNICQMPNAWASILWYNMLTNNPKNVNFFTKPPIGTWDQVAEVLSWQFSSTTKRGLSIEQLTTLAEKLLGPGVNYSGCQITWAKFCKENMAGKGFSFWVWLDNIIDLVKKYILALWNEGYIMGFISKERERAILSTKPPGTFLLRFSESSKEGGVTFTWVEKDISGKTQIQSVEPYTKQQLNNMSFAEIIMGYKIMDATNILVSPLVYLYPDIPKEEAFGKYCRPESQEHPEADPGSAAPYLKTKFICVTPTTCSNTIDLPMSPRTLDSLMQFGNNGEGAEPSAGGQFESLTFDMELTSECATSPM

For `CC(=O)N1CC[C@H]2CC[C@@H](C(=O)N[C@@H](CCC(N)=O)COc3cccc(CCCc4cn([C@H](C(=O)N5C[C@H](O)C[C@H]5C(=O)N[C@@H](C)c5ccc(-c6scnc6C)cc5)C5CCCCC5)nn4)c3Cl)N2C(=O)[C@@H](NC(=O)c2cc3cc(C(=O)P(=O)(O)O)ccc3[nH]2)C1` [Compound 19, (2-(((5S,8S,10aR)-3-acetyl-8-(((S)-5-amino-1-(2-chloro-3-(3-(1-((S)-1-cyclohexyl-2-((2S,4R)-4-hydroxy-2-(((S)-1-(4-(4-methylthiazol-5-yl)phenyl)ethyl)carbamoyl)pyrrolidin-1-yl)-2-oxoethyl)-1H-1,2,3-triazol-4-yl)propyl)phenoxy)-5-oxopentan-2-yl)carbamoyl)-6-oxodecahydropyrrolo[1,2-a][1,5]diazocin-5-yl)carbamoyl)-1H-indole-5-carbonyl)phosphonic acid], the IC50 in experiment [1] and in experiment [3] was below 10 nM throughout. In addition, in experiment [2], the Dmax at 1 µM was above 80%. In addition, the DC50 in experiment [2] was below 10 nM.

`Cc1ncsc1-c1ccc([C@H](C)NC(=O)[C@@H]2C[C@@H](O)CN2C(=O)[C@@H](n2cc(CCc3cccc(OC[C@H](CCC(N)=O)NC(=O)[C@@H]4CC[C@@H]5CCN(C(=O)C(C)C)C[C@H](NC(=O)c6cc7cc(C(=O)P(=O)(O)O)ccc7[nH]6)C(=O)N54)c3Cl)nn2)C(C)(C)C)cc1` [Compound 3, (2-(((5S,8S,10aR)-8-(((S)-5-amino-1-(2-chloro-3-(2-(1-((S)-1-((2S,4R)-4-hydroxy-2-(((S)-1-(4-(4-methylthiazol-5-yl)phenyl)ethyl)carbamoyl)pyrrolidin-1-yl)-3,3-dimethyl-1-oxobutan-2-yl)-1H-1,2,3-triazol-4-yl)ethyl)phenoxy)-5-oxopentan-2-yl)carbamoyl)-3-isobutyryl-6-oxodecahydropyrrolo[1,2-a][1,5]diazocin-5-yl)carbamoyl)-1H-indole-5-carbonyl)phosphonic acid]: the IC50 in experiment [1] fell in the range of 10 to 100 nM. Besides, in experiment [2], the Dmax at 1 µM was above 80% and the DC50 is 10 to 100 nM. For the same compound, in experiment [3], the IC50 lay within 10 to 100 nM.

As for `Cc1ncsc1-c1ccc([C@H](C)NC(=O)[C@@H]2C[C@@H](O)CN2C(=O)[C@@H](n2cc(CCCCCC(=O)N3CC[C@H]4CC[C@@H](C(=O)N[C@@H](CCC(N)=O)C(=O)NC(c5ccccc5)c5ccccc5)N4C(=O)[C@@H](NC(=O)c4cc5cc(C(=O)P(=O)(O)O)ccc5[nH]4)C3)nn2)C(C)(C)C)cc1` [Compound 58, (2-(((5S,8S,10aR)-8-(((S)-5-amino-1-(benzhydrylamino)-1,5-dioxopentan-2-yl)carbamoyl)-3-(6-(1-((S)-1-((2S,4R)-4-hydroxy-2-(((S)-1-(4-(4-methylthiazol-5-yl)phenyl)ethyl)carbamoyl)pyrrolidin-1-yl)-3,3-dimethyl-1-oxobutan-2-yl)-1H-1,2,3-triazol-4-yl)hexanoyl)-6-oxodecahydropyrrolo[1,2-a][1,5]diazocin-5-yl)carbamoyl)-1H-indole-5-carbonyl)phosphonic acid], the IC50 is 100 to 1000 nM in experiment [1] and above 1000 nM in experiment [3]. Further, in experiment [2], the DC50 was above 1000 nM.

Regarding `Cc1ncsc1-c1ccc([C@H](C)NC(=O)[C@@H]2C[C@@H](O)CN2C(=O)[C@@H](n2cc(CCCCCCCCC(=O)N3CC[C@H]4CC[C@@H](C(=O)N[C@@H](CCC(N)=O)C(=O)NC(c5ccccc5)c5ccccc5)N4C(=O)[C@@H](NC(=O)c4cc5cc(C(=O)P(=O)(O)O)ccc5[nH]4)C3)nn2)C(C)(C)C)cc1` [Compound 61, (2-(((5S,8S,10aR)-8-(((S)-5-amino-1-(benzhydrylamino)-1,5-dioxopentan-2-yl)carbamoyl)-3-(9-(1-((S)-1-((2S,4R)-4-hydroxy-2-(((S)-1-(4-(4-methylthiazol-5-yl)phenyl)ethyl)carbamoyl)pyrrolidin-1-yl)-3,3-dimethyl-1-oxobutan-2-yl)-1H-1,2,3-triazol-4-yl)nonanoyl)-6-oxodeca-hydropyrrolo[1,2-a][1,5]diazocin-5-yl)carbamoyl)-1H-indole-5-carbonyl)phosphonic acid], the 50% inhibitory concentration (IC50) in experiment [1] and in experiment [3] was above 1000 nM each time. Further, the DC50 in experiment [2] is above 1000 nM.

The compound `CC(=O)N1CC[C@H]2CC[C@@H](C(=O)N[C@@H](CCC(N)=O)COc3cccc(CCCc4cn([C@H](C(=O)N5C[C@H](O)C[C@H]5C(=O)N[C@@H](CO)c5ccc(-c6scnc6C)cc5)C(C)(C)C)nn4)c3Cl)N2C(=O)[C@@H](NC(=O)c2cc3cc(C(=O)P(=O)(O)O)ccc3[nH]2)C1` [Compound 39, (2-(((5S,8S,10aR)-3-acetyl-8-(((S)-5-amino-1-(2-chloro-3-(3-(1-((S)-1-((2S,4R)-4-hydroxy-2-(((R)-2-hydroxy-1-(4-(4-methylthiazol-5-yl)phenyl)ethyl)carbamoyl)pyrrolidin-1-yl)-3,3-dimethyl-1-oxobutan-2-yl)-1H-1,2,3-triazol-4-yl)propyl)phenoxy)-5-oxopentan-2-yl)carbamoyl)-6-oxodecahydropyrrolo[1,2-a][1,5]diazocin-5-yl)carbamoyl)-1H-indole-5-carbonyl)phosphonic acid] returned an IC50 in experiment [1] below 10 nM. Besides, in experiment [2], the Dmax at 1 µM was above 80% and the DC50 was below 10 nM. The compound further came in with an IC50 in experiment [3] below 10 nM.

For the compound `Cc1ncsc1-c1ccc([C@H](C)NC(=O)[C@@H]2C[C@@H](O)CN2C(=O)[C@@H](n2cc(CCCC(=O)N3CC[C@H]4CC[C@@H](C(=O)N[C@@H](CCC(N)=O)C(=O)NCc5cccc(Cl)c5)N4C(=O)[C@@H](NC(=O)c4cc5cc(C(=O)P(=O)(O)O)ccc5[nH]4)C3)nn2)C(C)(C)C)cc1` [Compound 9, (2-(((5S,8S,10aR)-8-(((S)-5-amino-1-((3-chlorobenzyl)amino)-1,5-dioxopentan-2-yl)carbamoyl)-3-(4-(1-((S)-1-((2S,4R)-4-hydroxy-2-(((S)-1-(4-(4-methylthiazol-5-yl)phenyl)ethyl)carbamoyl)pyrrolidin-1-yl)-3,3-dimethyl-1-oxobutan-2-yl)-1H-1,2,3-triazol-4-yl)butanoyl)-6-oxodecahydropyrrolo[1,2-a][1,5]diazocin-5-yl)carbamoyl)-1H-indole-5-carbonyl)phosphonic acid], in experiment [1], the IC50 fell in the range of 10 to 100 nM. Further, in experiment [2], the Dmax at 1 µM is above 80% and the DC50 was in the range of 10 to 100 nM. The IC50 in experiment [3] was in the range of 10 to 100 nM.

Regarding `Cc1ncsc1-c1ccc([C@H](C)NC(=O)[C@@H]2C[C@@H](O)CN2C(=O)[C@@H](n2cc(CCCc3cccc(OC[C@H](CCC(N)=O)NC(=O)[C@@H]4CC[C@@H]5CCN(C(=O)CCN6CCN(C)CC6)C[C@H](NC(=O)c6cc7cc(C(=O)P(=O)(O)O)ccc7[nH]6)C(=O)N54)c3Cl)nn2)C(C)(C)C)cc1` [Compound 33, (2-(((5S,8S,10aR)-8-(((S)-5-amino-1-(2-chloro-3-(3-(1-((S)-1-((2S,4R)-4-hydroxy-2-(((S)-1-(4-(4-methylthiazol-5-yl)phenyl)ethyl)carbamoyl)pyrrolidin-1-yl)-3,3-dimethyl-1-oxobutan-2-yl)-1H-1,2,3-triazol-4-yl)propyl)phenoxy)-5-oxopentan-2-yl)carbamoyl)-3-(3-(4-methylpiperazin-1-yl)propanoyl)-6-oxodecahydropyrrolo[1,2-a][1,5]diazocin-5-yl)carbamoyl)-1H-indole-5-carbonyl)phosphonic acid], the IC50 in experiment [1] is 100 to 1000 nM. Moreover, in experiment [2], the maximal degradation (Dmax) at 1 µM was above 80% and the DC50 was in the range of 10 to 100 nM. In experiment [3], this compound showed an IC50 of 10 to 100 nM.

The compound `CC(=O)N1CC[C@H]2CC[C@@H](C(=O)N[C@@H](CCC(N)=O)COc3cccc(CCCc4cn([C@H](C(=O)N5C[C@H](O)C[C@H]5C(=O)N[C@@H](C)c5ccc(-c6scnc6C)cc5)C5CCOCC5)nn4)c3Cl)N2C(=O)[C@@H](NC(=O)c2cc3cc(C(=O)P(=O)(O)O)ccc3[nH]2)C1` [Compound 23, (2-(((5S,8S,10aR)-3-acetyl-8-(((S)-5-amino-1-(2-chloro-3-(3-(1-((S)-2-((2S,4R)-4-hydroxy-2-(((S)-1-(4-(4-methylthiazol-5-yl)phenyl)ethyl)carbamoyl)pyrrolidin-1-yl)-2-oxo-1-(tetrahydro-2H-pyran-4-yl)ethyl)-1H-1,2,3-triazol-4-yl)propyl)phenoxy)-5-oxopentan-2-yl)carbamoyl)-6-oxodecahydropyrrolo[1,2-a][1,5]diazocin-5-yl)carbamoyl)-1H-indole-5-carbonyl)phosphonic acid] yielded an IC50 in experiment [1] below 10 nM. Moreover, in experiment [2], the Dmax at 1 µM is above 80% and the DC50 was below 10 nM. The IC50 in experiment [3] is below 10 nM.

Regarding `CC(=O)N1CC[C@H]2CC[C@@H](C(=O)N[C@@H](CCC(N)=O)COc3cccc(CCCc4cn([C@H](C(=O)N5C[C@H](O)C[C@H]5C(=O)N[C@@H](CCN5CCOCC5)c5ccc(-c6scnc6C)cc5)C(C)(C)C)nn4)c3Cl)N2C(=O)[C@@H](NC(=O)c2cc3cc(C(=O)P(=O)(O)O)ccc3[nH]2)C1` [Compound 4, (2-(((5S,8S,10aR)-3-acetyl-8-(((S)-5-amino-1-(2-chloro-3-(3-(1-((S)-1-((2S,4R)-4-hydroxy-2-(((S)-1-(4-(4-methylthiazol-5-yl)phenyl)-3-morpholinopropyl)carbamoyl)pyrrolidin-1-yl)-3,3-dimethyl-1-oxobutan-2-yl)-1H-1,2,3-triazol-4-yl)propyl)phenoxy)-5-oxopentan-2-yl)carbamoyl)-6-oxodecahydropyrrolo[1,2-a][1,5]diazocin-5-yl)carbamoyl)-1H-indole-5-carbonyl)phosphonic acid], the IC50 in experiment [1] was 10 to 100 nM. Also, in experiment [2], the Dmax at 1 µM was above 80% and the DC50 was 10 to 100 nM. Moreover, in experiment [3], the IC50 was 10 to 100 nM.

The IC50 is the concentration at which inhibition is half-maximal. A lower IC50 goes with inhibition by little substance. One may read the Dmax as the greatest extent of degradation seen. For orientation: DC50 means the concentration at which degradation of the target reaches its halfway point.
